Experimental findings from patent US9963496B2, “Stable glucagon analogues and use for treatment of hypoglycaemia” (Novo Nordisk A/S, priority 2014, dated 2018) are described below.

As usually defined, the EC50 is the concentration at which the effect is half-maximal.

A short description of one series: physchem. It counts as physicochemical. To be noted: pH 7.5. The text has this: Assay (III): ThT Fibrillation Assay for the Assessment of Physical Stability of Peptide Compositions The purpose of this assay is to assess the physical stability of the glucagon derivatives of the invention in aqueous solutions. Low physical stability of a peptide may lead to amyloid fibril formation, which is observed as well-ordered, thread-like macromolecular structures in the sample, which eventually may lead to gel formation. This has traditionally been measured by visual inspection of the sample. However, that kind of measurement is very cumbersome and depending on the observer. Therefore, the application of a small molecule indicator probe is much more advantageous. Thioflavin T (ThT) is such a probe and has a distinct fluorescence signature when binding to fibrils [Naiki et al. (1989) Anal. Biochem. 177, 244-249; LeVine (1999) Methods. Enzymol. 309, 274-284]. Here, as depicted in FIG. 1, F is the ThT fluorescence at the time t. The constant t0 is the time needed to reach 50% of maximum fluorescence. The two important parameters describing fibril formation are the lag-time calculated by t0−2τ and the apparent rate constant kapp 1/τ. Samples were prepared freshly before each assay. Each sample composition is described in the legends. The pH of the sample was adjusted to the desired value using appropriate amounts of concentrated NaOH and HCl. Thioflavin T was added to the samples from a stock solution in H2O to a final concentration of 1 μM. Sample aliquots of 200 μl (250 μM of the glucagon derivative/analogue in 10 mM HEPES buffer, pH 7.5) were placed in a 96 well microtiter plate (Packard OptiPlate™-96, white polystyrene). Usually, four or eight replica of each sample (corresponding to one test condition) was placed in one column of wells. The plate was sealed with Scotch Pad (Qiagen). Incubation at given temperature, shaking and measurement of the ThT fluorescence emission were done in a Fluoroskan Ascent FL fluorescence platereader (Thermo Labsystems). The plate was incubated 37° C. with orbital shaking adjusted to 960 rpm with an amplitude of 1 mm. Fluorescence measurement was done using excitation through a 444 nm filter and measurement of emission through a 485 nm filter. Each run was initiated by incubating the plate at the assay temperature for 10 min. The plate was measured every 20 minutes for a desired period of time. Between each measurement, the plate was shaken and heated as described. After completion of the ThT assay the four or eight replica of each sample was pooled and centrifuged at 20000 rpm for 30 minutes at 18° C. The supernatant was filtered through a 0.22 μm filter and an aliquot was transferred to a HPLC vial. The concentration of peptide in the initial sample and in the filtered supernatant was determined by reverse phase HPLC using an appropriate standard as reference. The percentage fraction the concentration of the filtered sample constituted of the initial sample concentration was reported as the recovery. The measurement points were saved in Microsoft Excel format for further processing and curve drawing and fitting was performed using GraphPad Prism. The background emission from ThT in the absence of fibrils was negligible. The data points were typically a mean of four or eight samples and shown with standard deviation error bars. Only data obtained in the same experiment (i.e. samples on the same plate) were presented in the same graph ensuring a relative measure of fibrillation between experiments. The data set may be fitted to Eq. (1).

A further series concerns the target T1, human glucagon receptor (Homo sapiens, UniProt P47871).
T1 construct: expressed in transfected cells; host or cells: BHK cells, clone BHK hGCGR A3*25; isolated membranes
Briefly: Assay (I)(b): glucagon receptor activation, CRE luciferase reporter gene assay in BHK cells. The class given is cell-based. The following applies: BHK cells expressing human glucagon receptor and CRE luciferase, 3 h incubation; read-out: EC50 hGlucagonR. Here is the method: The purpose of this assay is to test the activity, or potency, of the derivatives of the invention, in vitro. The in vitro potency is the measure of human GLP-1 receptor and/or glucagon receptor activation, respectively, in a whole cell assay.
In vitro potency was determined by measuring the response of human GLP-1 or glucagon receptor, respectively, in a reporter gene assay. The assay was performed in a stably transfected BHK cell line that expressed either the human GLP-1 receptor or the human glucagon receptor and contained the DNA for the cAMP response element (CRE) coupled to a promoter and the gene for firefly luciferase (CRE luciferase). […] When assay incubation was completed, the luciferase substrate (luciferin) was added and the enzyme converted luciferin to oxyluciferin and produced bioluminescence. The luminescence was measured as the readout for the assay.
(b) Glucagon Receptor Activation
The cells used in this assay (clone pLJ6′-4-25) were BHK cells with BHK570 as a parent cell line expressing the CRE luciferase gene (clone BHK/KZ10-20-48) and were established by further transfection with the human glucagon receptor (clone pLJ6′ in pHZ-1 vector).
The cells were cultured at 5% CO2 in DMEM medium with 10% FBS, 1× GlutaMAX, 1 mg/mL G418, 240 nM MTX (methotrexate) and 1% pen/strep (penicillin/streptomycin). They were aliquoted and stored in liquid nitrogen. Before each assay, an aliquot was taken up and washed three times in PBS before being suspended at the desired concentration in assay buffer. For 96-well plates the suspension was made to give a final concentration of 5×10 EE3 cells/well.
Assay Medium consisted of DMEM w/o phenol red, 10 mM Hepes, lx GlutaMAX, 2% Ovalbumin and 0.2% Pluronic F-68.
Cell stocks were thawed in a 37° C. water bath. Cells were washed three times in PBS. The cells were counted and adjusted to 5×10 EE3 cells/50 μl (1×10 EE5 cells/mL) in Assay Medium. A 50 μl aliquot of cells was transferred to each well in the assay plate.
Stocks of the test compounds and reference compounds were diluted to a concentration of […] in Assay Medium. Compounds were diluted 10-fold to give the following concentrations: […], 2×10 EE-7 M, 2×10 EE-8 M; 2×10 EE-9 M, 2×10 EE-10 M, 2×10 EE-11 M, 2×10 EE-12 M and 2×10 EE-13 M. For each compound a blank assay buffer control was also included.
A 50 μl aliquot of compound or blank was transferred from the dilution plate to the assay plate. Compounds were tested at the following final concentrations: 1×10 EE-6 M, 1×10 EE-7 M, 1×10 EE-8 M; 1×10 EE-9 M, 1×10 EE-10 M, 1×10 EE-11 M and 1×10 EE-12 M and 1×10 EE-13 M.
The assay plate was incubated for 3 h in a 5% CO2 incubator at 37° C. The assay plate was removed from the incubator and allowed to stand at room temperature for 15 min. A 100 μl aliquot of steadylite plus reagent was added to each well of the assay plate (reagent is light sensitive). Each assay plate was covered with aluminum foil to protect it from light and shaken for 30 min at room temperature. Each assay plate was read in a Packard TopCount NXT instrument.
The data from the TopCount instrument was transferred to GraphPad Prism software. The software performed a non-linear regression (log(agonist) vs response-Variable slope (four parameter)). EC50 values were calculated by the software and reported in pM.
A general note: In a reporter assay the amount or activity of a reporter protein is the signal.

*1 amine or outer side, *2 acyl side, *3 side chain or, on linkers, in order; H or OH if unused. Where a SMILES comes first, the peptide text is derived from it. Side-chain parts run from the residue outwards. The star is where a group is joined. γGlu = O=C(O)[C@H](CCC(=O)[*:2])N[*:1]; Desaminohistidyl = O=C(CCc1c[nH]cn1)*

T1 sequence (P47871 26-477): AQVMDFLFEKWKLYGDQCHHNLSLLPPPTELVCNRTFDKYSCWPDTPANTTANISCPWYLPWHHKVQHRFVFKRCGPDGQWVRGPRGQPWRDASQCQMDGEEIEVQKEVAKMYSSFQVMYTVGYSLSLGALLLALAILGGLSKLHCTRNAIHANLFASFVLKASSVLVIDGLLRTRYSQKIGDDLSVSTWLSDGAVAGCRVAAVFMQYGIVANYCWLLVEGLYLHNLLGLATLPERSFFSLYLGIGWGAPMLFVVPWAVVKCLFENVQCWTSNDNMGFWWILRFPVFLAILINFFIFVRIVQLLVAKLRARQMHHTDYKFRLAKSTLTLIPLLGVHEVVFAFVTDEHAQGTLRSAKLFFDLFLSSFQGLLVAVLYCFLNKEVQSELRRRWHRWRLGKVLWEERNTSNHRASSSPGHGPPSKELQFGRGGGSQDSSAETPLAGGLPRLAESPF

`CC(=O)N[C@@H](CCC(=O)N[C@@H](CCC(=O)N[C@@H](CCC(=O)N[C@@H](CCC(=O)NCCCC[C@H](NC(=O)[C@@H](NC(=O)[C@H](CO)NC(=O)[C@H](CC(C)C)NC(=O)[C@H](CC(C)C)NC(=O)[C@H](Cc1c[nH]c2ccccc12)NC(=O)[C@H](CCC(N)=O)NC(=O)[C@@H](NC(=O)[C@H](Cc1ccccc1)NC(=O)[C@H](CCC(=O)O)NC(=O)[C@H](CCC(N)=O)NC(=O)[C@H](C)NC(=O)[C@H](CCCNC(=N)N)NC(=O)[C@H](CCCNC(=N)N)NC(=O)[C@H](CO)NC(=O)[C@H](CCC(=O)O)NC(=O)[C@H](CC(C)C)NC(=O)[C@H](Cc1ccc(O)cc1)NC(=O)[C@H](CCCCN)NC(=O)[C@H](CO)NC(=O)[C@H](Cc1ccc(O)cc1)NC(=O)[C@H](CC(=O)O)NC(=O)[C@H](CO)NC(=O)[C@@H](NC(=O)[C@H](Cc1ccccc1)NC(=O)[C@@H](NC(=O)CNC(=O)[C@H](Cc1c[nH]cn1)NC(=O)[C@H](CO)NC(=O)CCc1c[nH]cn1)[C@@H](C)O)[C@@H](C)O)C(C)C)[C@@H](C)O)C(=O)O)C(=O)O)C(=O)O)C(=O)O)C(=O)O` [Example 16, N^α([Imp1, His3, Glu15, Glu21, Leu27, Ser28]-Glucagonyl)-N{Epsilon}[(4S)-4-[[(4S)-4-[[(4S)-4-[[(4S)-4-acetamido-4-carboxybutanoyl]amino]-4-carboxybutanoyl]amino]-4-carboxybutanoyl]amino]-4-carboxybutanoyl]Lys] (Desaminohistidyl-SHGTFTSDYSKYLESRRAQEFVQWLLSTK([γGlu-γGlu-γGlu-γGlu-Ac])-OH) came in with a recovery at 250 μM in the series “physchem” of 61%. For the same molecule, at human glucagon receptor, the EC50 stood at 4 pM.

In the case of `CC(=O)N[C@@H](CCC(=O)N[C@@H](CCC(=O)N[C@@H](CCC(=O)NCCCC[C@H](NC(=O)[C@@H](NC(=O)[C@H](Cc1ccccc1)NC(=O)[C@H](CCC(=O)O)NC(=O)[C@H](CCC(N)=O)NC(=O)[C@H](C)NC(=O)[C@H](CCCNC(=N)N)NC(=O)[C@H](CCCNC(=N)N)NC(=O)[C@H](CO)NC(=O)[C@H](CCC(=O)O)NC(=O)[C@H](CC(C)C)NC(=O)[C@H](Cc1ccc(O)cc1)NC(=O)[C@H](CCCCN)NC(=O)[C@H](CO)NC(=O)[C@H](Cc1ccc(O)cc1)NC(=O)[C@H](CC(=O)O)NC(=O)[C@H](CO)NC(=O)[C@@H](NC(=O)[C@H](Cc1ccccc1)NC(=O)[C@@H](NC(=O)CNC(=O)[C@H](Cc1c[nH]cn1)NC(=O)[C@H](CO)NC(=O)CCc1c[nH]cn1)[C@@H](C)O)[C@@H](C)O)C(C)C)C(=O)N[C@@H](Cc1c[nH]c2ccccc12)C(=O)N[C@@H](CC(C)C)C(=O)N[C@@H](CC(C)C)C(=O)N[C@@H](CO)C(=O)N[C@H](C(=O)O)[C@@H](C)O)C(=O)O)C(=O)O)C(=O)O` [Example 18, N^ϵ24-[(4S)-4-[[(4S)-4-[[(4S)-4-acetamido-4-carboxybutanoyl]amino]-4-carboxybutanoyl]amino]-4-carboxybutanoyl]-[Imp1, His3, Glu15, Glu21, Lys24, Leu27, Ser28]-Glucagon] (Desaminohistidyl-SHGTFTSDYSKYLESRRAQEFVK([γGlu-γGlu-γGlu-Ac])WLLST-OH), the recovery at 250 μM in “physchem” is 100%. Also, the EC50 at human glucagon receptor amounted to 6 pM.

For `CC(=O)N[C@@H](CCC(=O)N[C@@H](CCC(=O)N[C@@H](CCC(=O)N[C@@H](CCC(=O)NCCCC[C@H](NC(=O)[C@H](CO)NC(=O)[C@H](CC(C)C)NC(=O)[C@H](CC(C)C)NC(=O)[C@H](Cc1c[nH]c2ccccc12)NC(=O)[C@H](CCC(N)=O)NC(=O)[C@@H](NC(=O)[C@H](Cc1ccccc1)NC(=O)[C@H](CCC(=O)O)NC(=O)[C@H](CCC(N)=O)NC(=O)[C@H](C)NC(=O)[C@H](CCCNC(=N)N)NC(=O)[C@H](CCCNC(=N)N)NC(=O)[C@H](CO)NC(=O)[C@H](CCC(=O)O)NC(=O)[C@H](CC(C)C)NC(=O)[C@H](Cc1ccc(O)cc1)NC(=O)[C@H](CCCCN)NC(=O)[C@H](CO)NC(=O)[C@H](Cc1ccc(O)cc1)NC(=O)[C@H](CC(=O)O)NC(=O)[C@H](CO)NC(=O)[C@@H](NC(=O)[C@H](Cc1ccccc1)NC(=O)[C@@H](NC(=O)CNC(=O)[C@H](Cc1c[nH]cn1)NC(=O)[C@H](CO)NC(=O)CCc1c[nH]cn1)[C@@H](C)O)[C@@H](C)O)C(C)C)C(=O)O)C(=O)O)C(=O)O)C(=O)O)C(=O)O` [Example 15, N^ϵ29-[(4S)-4-[[(4S)-4-[[(4S)-4-[[(4S)-4-acetamido-4-carboxybutanoyl]amino]-4-carboxybutanoyl]amino]-4-carboxybutanoyl]amino]-4-carboxybutanoyl]-[Imp1, His3, Glu15, Glu21, Leu27, Ser28, Lys29]-Glucagon] (Desaminohistidyl-SHGTFTSDYSKYLESRRAQEFVQWLLSK([γGlu-γGlu-γGlu-γGlu-Ac])-OH), the recovery at 250 μM in the series “physchem” came to 88%. Besides, on human glucagon receptor, the EC50 came to 4 pM.
